# According to patent US20210115104A1, “AMYLIN ANALOGUES” (Zealand Pharma A/S, priority 2015, published 2021):
# *1 amine or outer side, *2 acyl side, *3 side chain or, on linkers, in order; H or OH if unused. Where a SMILES comes first, the peptide text is derived from it. Bridges are numbered along the chain shown (N, C = ends). [ ]: non-standard residue; d: D form. The star is where a group is joined. C20 diacid = O=C(O)CCCCCCCCCCCCCCCCCCC(=O)*; γGlu = O=C(O)[C@H](CCC(=O)[*:2])N[*:1]; Hyp = O=C(O)[C@@H]1C[C@@H](O)CN1; NMeI = CC[C@H](C)[C@H](NC)C(=O)O; Sar = CNCC(=O)O
# Assays:
# [1] = target: T1, human calcitonin receptor (hCTR2) (Homo sapiens, UniProt P30988); test: hCTR2 cAMP assay (AlphaScreen) in COS7 cells; type: cell-based; conditions: cAMP induction, COS7 cells expressing hCTR2; Table 1; read-out: hCTR2 EC50
# T1 construct: expressed in transfected cells
# T1 sequence (P30988 25-474): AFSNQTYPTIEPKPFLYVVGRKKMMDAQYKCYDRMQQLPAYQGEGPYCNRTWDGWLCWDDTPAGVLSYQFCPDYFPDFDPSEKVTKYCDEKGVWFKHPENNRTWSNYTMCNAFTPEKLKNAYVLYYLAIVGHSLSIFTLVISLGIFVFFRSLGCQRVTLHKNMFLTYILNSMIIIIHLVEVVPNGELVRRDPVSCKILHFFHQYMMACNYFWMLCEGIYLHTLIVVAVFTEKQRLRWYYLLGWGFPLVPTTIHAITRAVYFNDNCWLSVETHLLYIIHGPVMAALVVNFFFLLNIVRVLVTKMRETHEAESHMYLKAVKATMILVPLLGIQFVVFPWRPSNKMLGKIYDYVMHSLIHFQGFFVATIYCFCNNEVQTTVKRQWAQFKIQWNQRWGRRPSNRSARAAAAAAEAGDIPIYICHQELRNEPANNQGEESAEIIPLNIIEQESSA
# How it was run: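 Stable hCTR2 clone in RAMP-naïve COS7 cells stimulated 15 min at 37 °C with increasing peptide concentrations in Tyrode buffer pH 7.4 containing IBMX and 0.1% casein. cAMP in lysates measured by AlphaScreen; EC50 from 4-parameter logistic fit.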
# [2] = target: T2, human amylin receptor 3 (hAMYR3), hCTR2 co-expressed with hRAMP3 (Homo sapiens, UniProt O60896+P30988); test: hAMYR3 cAMP assay (AlphaScreen) in COS7 cells; type: cell-based; conditions: cAMP induction, COS7 cells expressing hAMYR3; Table 1; read-out: hAMYR3 EC50
# T2 construct: expressed in transfected cells
# T2 sequence (P30988 25-474): T1 sequence (P30988 25-474)
# T2 sequence (O60896 24-148 partner): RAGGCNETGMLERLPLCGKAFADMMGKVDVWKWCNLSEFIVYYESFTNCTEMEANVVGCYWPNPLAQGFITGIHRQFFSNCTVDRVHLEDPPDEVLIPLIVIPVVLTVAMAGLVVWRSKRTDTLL
# How it was run: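 Stable COS7 clone co-expressing hCTR2 and hRAMP3 was exposed to increasing peptide concentrations in Tyrode buffer (pH 7.4) with 100 µM IBMX and 0.1% casein for 15 min at 37 °C. Lysate cAMP was measured by AlphaScreen; EC50 came from 4-parameter logistic fitting.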
SMILES,EC50 [1],EC50 [2]
"CC[C@H](C)[C@@H](C(=O)N[C@@H](CC(C)C)C(=O)N[C@@H](CO)C(=O)N[C@@H](CO)C(=O)N[C@H](C(=O)N[C@@H](CCC(=O)O)C(=O)N[C@H](C(=O)NCC(=O)N[C@@H](CO)C(=O)N[C@@H](CC(N)=O)C(=O)N[C@H](C(=O)N1CCC[C@H]1C(N)=O)[C@@H](C)O)C(C)C)[C@@H](C)O)N(C)C(=O)[C@H](C)NC(=O)CN(C)C(=O)[C@H](Cc1ccccc1)NC(=O)[C@H](CO)NC(=O)[C@H](CO)NC(=O)[C@H](CCCNC(=N)N)NC(=O)[C@H](CCC(N)=O)NC(=O)[C@H](CC(C)C)NC(=O)[C@H](Cc1ccccc1)NC(=O)[C@H](CC(=O)O)NC(=O)[C@H](C)NC(=O)[C@H](CC(C)C)NC(=O)[C@H](CCCNC(=N)N)NC(=O)[C@H](CCC(=O)O)NC(=O)[C@@H](NC(=O)[C@H](C)NC(=O)[C@@H]1CSSC[C@H](NC(=O)[C@H](CCCNC(=N)N)NC(=O)CC[C@H](NC(=O)CCCCCCCCCCCCCCCCCCC(=O)O)C(=O)O)C(=O)N[C@@H](CC(N)=O)C(=O)N[C@@H]([C@@H](C)O)C(=O)N[C@@H](C)C(=O)N[C@@H]([C@@H](C)O)C(=O)N1)[C@@H](C)O [Compound 66, [19CD]-isoGlu-R-C( )-NTAT-C( )-ATERLADFLQRSSF-Gly(Me)-A-Ile(Me)-LSSTEVGSNTP-NH2] ({C20 diacid-γGlu}-RCNTATCATERLADFLQRSSF[Sar]A[NMeI]LSSTEVGSNTP-NH2; disulfide 2-7)",0.19 nM,0.3 nM
"CC[C@H](C)[C@@H](C(=O)N[C@@H](CC(C)C)C(=O)N[C@@H](CO)C(=O)N[C@@H](CO)C(=O)N[C@H](C(=O)N[C@@H](CCC(=O)O)C(=O)N[C@H](C(=O)NCC(=O)N[C@@H](CO)C(=O)N[C@@H](CC(N)=O)C(=O)N[C@H](C(=O)N1C[C@H](O)C[C@H]1C(N)=O)[C@@H](C)O)C(C)C)[C@@H](C)O)N(C)C(=O)[C@H](C)NC(=O)CN(C)C(=O)[C@H](Cc1ccccc1)NC(=O)[C@H](CO)NC(=O)[C@H](CO)NC(=O)[C@H](CCCNC(=N)N)NC(=O)[C@H](CCC(N)=O)NC(=O)[C@H](CC(C)C)NC(=O)[C@H](Cc1ccccc1)NC(=O)[C@H](CC(=O)O)NC(=O)[C@H](C)NC(=O)[C@H](CC(C)C)NC(=O)[C@H](CCCNC(=N)N)NC(=O)[C@H](CCC(=O)O)NC(=O)[C@@H](NC(=O)[C@H](C)NC(=O)[C@@H]1CSSC[C@H](NC(=O)[C@H](CCCNC(=N)N)NC(=O)CC[C@H](NC(=O)CCCCCCCCCCCCCCCCCCC(=O)O)C(=O)O)C(=O)N[C@@H](CC(N)=O)C(=O)N[C@@H]([C@@H](C)O)C(=O)N[C@@H](C)C(=O)N[C@@H]([C@@H](C)O)C(=O)N1)[C@@H](C)O [Compound 68, [19CD]-isoGlu-R-C( )-NTAT-C( )-ATERLADFLQRSSF-Gly(Me)-A-Ile(Me)-LSSTEVGSNT-Hyp-NH2] ({C20 diacid-γGlu}-RCNTATCATERLADFLQRSSF[Sar]A[NMeI]LSSTEVGSNT[Hyp]-NH2; disulfide 2-7)",0.32 nM,0.29 nM
"CC[C@H](C)[C@@H](C(=O)N[C@@H](CC(C)C)C(=O)N[C@@H](CO)C(=O)N[C@@H](CO)C(=O)N[C@H](C(=O)N[C@@H](CCC(=O)O)C(=O)N[C@H](C(=O)NCC(=O)N[C@@H](CO)C(=O)N[C@@H](CO)C(=O)N[C@H](C(=O)N1C[C@H](O)C[C@H]1C(N)=O)[C@@H](C)O)C(C)C)[C@@H](C)O)N(C)C(=O)[C@H](C)NC(=O)CN(C)C(=O)[C@H](Cc1ccccc1)NC(=O)[C@H](CO)NC(=O)[C@H](CO)NC(=O)[C@H](CCCNC(=N)N)NC(=O)[C@H](CCC(N)=O)NC(=O)[C@H](CC(C)C)NC(=O)[C@H](Cc1ccccc1)NC(=O)[C@H](Cc1c[nH]cn1)NC(=O)[C@H](C)NC(=O)[C@H](CC(C)C)NC(=O)[C@H](CCCNC(=N)N)NC(=O)[C@H](CCC(=O)O)NC(=O)[C@@H](NC(=O)[C@H](C)NC(=O)[C@@H]1CSSC[C@H](NC(=O)[C@H](CCCNC(=N)N)NC(=O)CC[C@H](NC(=O)CCCCCCCCCCCCCCCCCCC(=O)O)C(=O)O)C(=O)N2CCC[C@H]2C(=O)N[C@@H]([C@@H](C)O)C(=O)N[C@@H](C)C(=O)N[C@@H]([C@@H](C)O)C(=O)N1)[C@@H](C)O [Compound 70, [19CD]-isoGlu-R-C( )-PTAT-C( )-ATERLAHFLQRSSF-Gly(Me)-A-Ile(Me)-LSSTEVGSST-Hyp-NH2] ({C20 diacid-γGlu}-RCPTATCATERLAHFLQRSSF[Sar]A[NMeI]LSSTEVGSST[Hyp]-NH2; disulfide 2-7)",0.35 nM,0.36 nM

# Second part, the compound after the results:
EC50 [1],EC50 [2],SMILES
0.35 nM,0.27 nM,"CC[C@H](C)[C@@H](C(=O)N[C@@H](CC(C)C)C(=O)N[C@@H](CO)C(=O)N[C@@H](CO)C(=O)N[C@H](C(=O)N[C@@H](CCC(=O)O)C(=O)N[C@H](C(=O)NCC(=O)N[C@@H](CO)C(=O)NCC(=O)N[C@H](C(=O)N1C[C@H](O)C[C@H]1C(N)=O)[C@@H](C)O)C(C)C)[C@@H](C)O)N(C)C(=O)[C@H](C)NC(=O)CN(C)C(=O)[C@H](Cc1ccccc1)NC(=O)[C@H](CO)NC(=O)[C@H](CO)NC(=O)[C@H](CCCNC(=N)N)NC(=O)[C@H](CCC(N)=O)NC(=O)[C@H](CC(C)C)NC(=O)[C@H](Cc1ccccc1)NC(=O)[C@H](Cc1c[nH]cn1)NC(=O)[C@H](C)NC(=O)[C@H](CC(C)C)NC(=O)[C@H](CCCNC(=N)N)NC(=O)[C@H](CCC(=O)O)NC(=O)[C@@H](NC(=O)[C@H](C)NC(=O)[C@@H]1CSSC[C@H](NC(=O)[C@H](CCCNC(=N)N)NC(=O)CC[C@H](NC(=O)CCCCCCCCCCCCCCCCCCC(=O)O)C(=O)O)C(=O)N2CCC[C@H]2C(=O)N[C@@H]([C@@H](C)O)C(=O)N[C@@H](C)C(=O)N[C@@H]([C@@H](C)O)C(=O)N1)[C@@H](C)O [Compound 72, [19CD]-isoGlu-R-C( )-PTAT-C( )-ATERLAHFLQRSSF-Gly(Me)-A-Ile(Me)-LSSTEVGSGT-Hyp-NH2] ({C20 diacid-γGlu}-RCPTATCATERLAHFLQRSSF[Sar]A[NMeI]LSSTEVGSGT[Hyp]-NH2; disulfide 2-7)"
0.12 nM,0.24 nM,"CC[C@H](C)[C@@H](C(=O)N[C@@H](CC(C)C)C(=O)N[C@@H](CO)C(=O)N[C@@H](CO)C(=O)N[C@H](C(=O)N[C@@H](CCC(=O)O)C(=O)N[C@H](C(=O)NCC(=O)N[C@@H](CO)C(=O)N[C@H](C(=O)N[C@H](C(=O)N1C[C@H](O)C[C@H]1C(N)=O)[C@@H](C)O)[C@@H](C)O)C(C)C)[C@@H](C)O)N(C)C(=O)[C@H](C)NC(=O)CN(C)C(=O)[C@H](Cc1ccccc1)NC(=O)[C@H](CO)NC(=O)[C@H](CO)NC(=O)[C@H](CCCNC(=N)N)NC(=O)[C@H](CCC(N)=O)NC(=O)[C@H](CC(C)C)NC(=O)[C@H](Cc1ccccc1)NC(=O)[C@H](Cc1c[nH]cn1)NC(=O)[C@H](C)NC(=O)[C@H](CC(C)C)NC(=O)[C@H](CCCNC(=N)N)NC(=O)[C@H](CCC(N)=O)NC(=O)[C@@H](NC(=O)[C@H](C)NC(=O)[C@@H]1CSSC[C@H](NC(=O)[C@H](CCCNC(=N)N)NC(=O)CC[C@H](NC(=O)CCCCCCCCCCCCCCCCCCC(=O)O)C(=O)O)C(=O)N[C@@H](CC(N)=O)C(=O)N[C@@H]([C@@H](C)O)C(=O)N[C@@H](C)C(=O)N[C@@H]([C@@H](C)O)C(=O)N1)[C@@H](C)O [Compound 73, [19CD]-isoGlu-R-C( )-NTAT-C( )-ATQRLAHFLQRSSF-Gly(Me)-A-Ile(Me)-LSSTEVGSTT-Hyp-NH2] ({C20 diacid-γGlu}-RCNTATCATQRLAHFLQRSSF[Sar]A[NMeI]LSSTEVGSTT[Hyp]-NH2; disulfide 2-7)"
